Source: patent US20100197710A1, “Methods Of Activating IRS-1 And AKT” (MELIOR PHARMACEUTICALS I, INC., priority 2007, published 2010)

Key:
[1] = tested on: mouse model of hyperglycemia; assay: Oral glucose tolerance test; type: in vivo, mice
Description: Type II diabetes is characterized by high blood glucose level in the presence of normal amounts of insulin. Animal models of type II diabetes involve administering a high level of glucose and measuring blood glucose level and the ability of the experimental animal to maintain glucose homeostasis over time. Several pharmacological structural classes can effectively regulate this hyperglycemic response including sulfonylureas, thiazoladinediones (PPARγ agonists; glitazones) or metformin (glucophage). These drug classes are also clinically approved for use in humans. In the current study, a mouse model of hyperglycemia has been established by administering high level of glucose to mice.
Glucose was formulated in water at a concentration of 150 mg/ml and dosed at a volume of 10 ml/kg to produce a dose of 1.5 g/kg. Glucose was measured using the Ascensia II Elite XL glucose monitor (Bayer). Glucose was measured by taking a small (2 mm) section off the tip of the tail, bleed onto glucose test strip. Data for each time point was analyzed by ANOVA and post-hoc Tukey's test. A p value of less then 0.05 was used to indicate statistical significance. Two studies were conducted with the following Compound 102.
In study 1, mice were dosed with Compound 102 and glucose as follows:
In study 2, mice were dosed with Compound 102 and glucose as follows.
Study 3 tested Compound 102 and was conducted as follows: […]

[2] = tested on: Male CD1/ICR mice fed Western Diet; assay: Western Diet study (weight, food intake, fat pads); type: in vivo
Procedure: Male CD1/ICR mice were obtained from Harlan. The study was started when mice were 8 weeks of age. Prior to initiation of the study mice fasted for 24 hours. Mice were fed “Western Diet” that was designed to approximate the “typical” human diet of North America and Europe (Research Diets; New Brunswick, N.J.; Western Diet composition). The Western Diet contained greater than 5 times more fat than normal chow. [table] Mice were weighed daily beginning from the start of the 24 hour fasting period. Food intake was monitored continuously. Mice were bled by retroorbital eyebleed on days 7, 14, 21 and 28 after the initiation of the study. On day of REB, mice were dosed 1× with full dose 1 hour prior to bleed. Fat pads were dissected at the end of the study (day 31) weighed and frozen. The following fat pads were dissected: brown, inguinal, axial, mesenteric, renal, and epidydimal. Data were averaged and analyzed by ANOVA followed by a post-hoc Tukey's test with a p value of less then 0.05 indicating a statistical difference.

[3] = tested on: mice on western diet; assay: Leptin level in Western Diet treated animals (ELISA); type: in vivo; conditions: mice fed western diet, bled days 7, 14, 21, 28, dosed 1 hour prior to bleed
Procedure: Blood from mice that were on western diet (Compound 102) were analyzed for leptin level. Mice were bled by retroorbital eyebleed on days 7, 14, 21 and 28 after the initiation of the study. On day of REB, mice were dosed once with full dose 1 hour prior to bleed. Leptin level was determined by ELISA (R&D Systems) as per directions. Data are expressed as the average±SEM. Data were averaged and analyzed by ANOVA followed by a post-hoc Tukey's test with a p value of less then 0.05 indicating a statistical difference.

[4] = tested on: Db/Db Leptin Receptor deficient diabetes/metabolic syndrome animal model; assay: In vivo Db/Db mouse study, glucose study; conditions: Db/Db mice
Procedure: (§1) Db/Db and Db/lean mice were obtained from Harlan at 6 weeks of age. Mice were housed 3 per cage and fed ad libitum normal rodent chow. Mice were kept on a 12 hour light:dark cycle.
(§2) The study was initiated when mice reached an age of 8 weeks and their baseline blood glucose level was greater than 200 mg/dl. Compound 102 was formulated in PBS:2N HCl (99:1) at concentrations of 0.5, 1.5 and 5 mg/ml. Mice were dosed at volumes of 10 ml/kg to produce doses of 5, 15 and 50 mg/kg/dose. Mice were dosed twice per day at an 8 hour interval (8 am and 4 pm) during the light cycle.
For the acute blood glucose measurements, blood glucose level was measured after the animals received their first dose of Compound 102. Blood glucose level was measured two hours after this initial injection.
In this study, mice were dosed with Compound 102 IP, twice/day over the course of four weeks.

[5] = tested on: Db/Db mice; assay: In vivo Db/Db mouse study, obesity study; conditions: 28 days
Procedure: as §1, §2
Mice were administered vehicle or drug (i.e., Compound 102) (5, 15, and 50 mg/kg) twice per day (bid) for the 28 days. Mouse weight and food intake were monitored daily. Food intake is reported as food intake (grams) per mouse per 24 hour period.

[6] = tested on: Zucker rats; assay: In vivo Zucker rat glucose study; conditions: 30 mg/kg ip, glucose 1.5 g/kg oral gavage, 30 and 270 minutes after glucose
Procedure: Zucker rats and corresponding lean rats were supplied by Harlan. Rats were fed a normal diet, ad libitum, and kept on a 12 hour light/dark cycle. Rats were housed 3 per cage. At 12 weeks of age, Zucker rats were administered Compound 102 at a concentration of 30 mg/kg (ip). Blood glucose level was measured 30 minutes after administration. Forty-five minutes after drug administration, animals were administered a glucose solution (1.5 g/kg) by oral gavage. Blood glucose level was measured every 30 minutes after gavage for 4.5 hours. There were 3 groups with 3 animals per group: 1) 3 Zucker leans (no drug; no glucose treatment); 2) Zucker vehicle treated group (glucose challenged); and 3) Zucker Compound 102 treatment (30 mg/kg); glucose challenged.

[7] = tested on: IRS-1; assay: IRS-1 phosphorylation in vivo (immunoprecipitation); conditions: mice, fat pads and livers removed ninety minutes after drug administration, FIGS. 2A, 2B
Procedure: (§3) The following studies were conducted to determine whether Compound 102 activated lyn kinase in vivo. This determination was conducted by measuring activation (phosphorylation) of downstream substrates of Lyn in mice treated with Compound 102. Referring to FIGS. 2A, 2B, and 3, mice were administered Compound 102 at the indicated dose. Ninety minutes after drug administration, fat pads and livers were removed. IRS-1 phosphorylation was measured by immunoprecipitation using an anti-phosphotyrosine antibody and probing with either IRS-1 or AKT antibody.

[8] = tested on: AKT; assay: AKT phosphorylation in vivo (immunoprecipitation); conditions: mice, fat pads and livers removed ninety minutes after drug administration, FIG. 3
Procedure: as §3

[9] = study 1, mice, single administration, 30 mg/kg
[10] = IP twice/day over four weeks, 5, 15, 50 mg/kg

## Cc1cccc(Oc2cnc(=O)[nH]c2)c1 [Compound 102]
[1]; [9]
  normal blood glucose level (pre-glucose loading): significantly decreased
  time after drug administration at which significance was lost: 90 min
[1]; study 1, mice, single administration, 30 mg/kg, oral glucose 1.5 g/kg
  blood glucose level produced by oral glucose administration: significantly attenuated
[1]; study 2, mice, increased (repeated) dosing
  effect on blood glucose level: more dramatic effect
[2]; fat pads dissected day 31
  brown, axial, inguinal, renal and epididymal fat pad increases: significantly reduced
[2]; highest dose tested 30 mg/kg/day
  weight gain (absolute weight and weight change from day 0): significantly reduced
[3]
  blood leptin level: reduced leptin level to those fed a normal diet
[4]; 15 mg/kg and 50 mg/kg dose groups, upon study initiation and on weekly blood glucose testing
  acute blood glucose response in dose groups: acute dose response
[4]; [10]
  animal weight gain: dose dependent effect
  blood glucose level: dose dependent effect
[4]; measured two hours after first dose
  blood glucose level following acute administration: reduce blood glucose level
[5]; chronic administration, 5, 15, 50 mg/kg bid
  weight-gain response: significantly inhibited
[5]; chronic administration, bid
  defecation: defecated normally
[6]
  blood glucose level after oral glucose administration: reduced blood glucose level
[7]
  phosphorylation of IRS-1: increases
[8]
  phosphorylation of AKT: increases

## O=c1ncc(Oc2cccc(Cl)c2)c[nH]1 [Compound 105]
[1]; mice, single dose of 2 or 10 mg/kg
  baseline blood glucose level: significantly depressed
[1]; mice, single dose of 2 or 10 mg/kg, P<0.05
  blood glucose level at all time points after administration: significantly (P<0.05) reduced

## CN(C)C(=N)N=C(N)N [metformin, reference compound]
[1]; validation of the mouse model of hyperglycemia
  blood glucose load: effectively reduce
